In the supplement of paper PMC10307832:

Compound: Cn1cncc1[C@@](N)(c1ccc(Cl)cc1)c1ccc2c(c1)c(-c1cccc(Cl)c1)cc(=O)n2C [Tipifarnib]
Assay: relative viability (nuclei count vs DMSO), 5 days (fraction); higher = more cells survive
Summary of the method: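 Lung cancer cell lines received five library-drug doses (not always all listed) spaced by √10, pinned on vehicle-anchored 1536-well plates after an overnight stay at 37 °C. Five days later, with no medium change, nuclei were Hoechst-stained, imaged at 4× and counted with MetaXpress. Viability is treated-well nuclei relative to vehicle-well nuclei, as a median across plates. Passing plates had control CV below 25% and at least one doubling.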

| Cell Line | relative viability (0.01 µM) | relative viability (0.03162 µM) | relative viability (0.1 µM) | relative viability (0.3162 µM) | relative viability (1 µM) |
| --- | --- | --- | --- | --- | --- |
| 201T | 0.999 | 1.02 | 0.932 | 0.893 | 0.669 |
| A549 | 1.01 | 0.853 | 0.563 | 0.417 | 0.251 |
| A-427 | 1.12 | 0.981 | 0.987 | 0.826 | 0.609 |
| ABC-1 | 0.959 | – | 0.88 | 0.756 | 0.663 |
| BEN | 1.2 | 1.03 | 0.926 | 0.853 | 0.752 |
| CAL-12T | 0.937 | 0.82 | 0.617 | 0.549 | 0.391 |
| COR-L23 | 1.04 | 0.803 | 0.681 | 0.622 | 0.467 |
| COR-L 105 | 0.935 | 0.807 | 0.734 | 0.696 | 0.571 |
| Calu-6 | 0.931 | 0.767 | 0.688 | 0.572 | 0.579 |
| ChaGo-K-1 | 0.993 | 1.02 | 1.08 | 0.928 | 0.547 |
| EBC-1 | 0.837 | 0.383 | 0.353 | 0.257 | 0.259 |
| EKVX | 1.07 | 0.954 | 0.901 | 0.807 | 0.531 |
| EMC-BAC-2 | 0.997 | 0.936 | 0.82 | 0.809 | 0.529 |
| EPLC-272H | 0.995 | 0.761 | 0.818 | 0.618 | 0.238 |
| H3255 | 1.05 | 0.991 | 0.796 | 0.642 | 0.617 |
| HARA | 1.14 | 1.03 | 1.04 | 0.826 | 0.348 |
| HCC-15 | 0.846 | 0.835 | 0.699 | 0.551 | 0.271 |
| HCC-44 | 0.967 | 0.871 | 0.802 | 0.729 | 0.472 |
| HCC-78 | 1 | 0.948 | 0.808 | 0.768 | 0.633 |
| HCC-366 | 1.06 | 0.939 | 0.781 | 0.541 | 0.0913 |
| HCC-827 | 1.06 | 0.975 | 0.787 | 0.65 | 0.584 |
| HOP-62 | 0.833 | 0.57 | 0.482 | 0.333 | 0.454 |
| IA-LM | 0.426 | 0.529 | 0.376 | 0.185 | 0.184 |
| LC-2-ad | 0.925 | 0.783 | 0.636 | 0.614 | 0.403 |
| LCLC-97TM1 | 0.98 | 0.707 | 0.878 | 0.703 | 0.19 |
| LCLC-103H | 1.06 | 1.04 | 0.927 | 0.817 | 0.756 |
| LK-2 | 1.03 | 0.857 | 0.809 | 0.615 | 0.607 |

| Cell Line | relative viability (0.01 µM) | relative viability (0.03162 µM) | relative viability (0.1 µM) | relative viability (0.3162 µM) | relative viability (1 µM) |
| --- | --- | --- | --- | --- | --- |
| LOU-NH91 | 0.912 | 0.841 | 0.908 | 0.771 | 0.558 |
| LU99A | 1 | 0.836 | 0.643 | 0.556 | 0.394 |
| LXF-289 | 0.985 | 0.943 | 1 | 0.894 | 0.771 |
| NCI-H23 | 1.09 | 0.767 | 0.765 | 0.539 | 0.337 |
| NCI-H322M | 0.965 | 1.06 | 0.977 | 0.805 | 0.786 |
| NCI-H358 | 1.04 | 0.918 | 0.834 | 0.729 | 0.416 |
| NCI-H441 | 1.33 | 0.751 | 0.718 | 0.568 | 0.393 |
| NCI-H460 | 0.989 | 0.963 | 0.727 | 0.538 | 0.149 |
| NCI-H520 | 1.02 | 0.9 | 0.947 | 0.658 | 0.504 |
| NCI-H522 | 0.917 | 1.06 | 1.1 | 0.898 | 0.748 |
| NCI-H596 | 0.982 | 0.964 | 0.918 | 0.724 | 0.587 |
| NCI-H647 | 0.883 | 0.807 | 0.727 | 0.404 | 0.196 |
| NCI-H650 | 0.855 | 0.922 | 0.733 | 0.695 | 0.368 |
| NCI-H661 | 1.03 | 1.02 | 0.934 | 0.905 | 0.849 |
| NCI-H727 | 1.16 | 1.11 | 0.876 | 0.685 | 0.645 |
| NCI-H838 | 0.9 | 0.892 | 0.741 | 0.722 | 0.621 |
| NCI-H1299 | 1.04 | 0.937 | 0.958 | 0.836 | 0.832 |
| NCI-H1355 | 1.04 | 0.852 | 0.68 | 0.675 | 0.607 |
| NCI-H1395 | 0.808 | 0.823 | 0.659 | 0.606 | 0.492 |
| NCI-H1437 | 1.01 | 1.01 | 1.02 | 0.917 | 0.634 |
| NCI-H1563 | 0.992 | 1.02 | 0.876 | 0.935 | 0.794 |
| NCI-H1648 | 1.03 | 0.761 | 0.896 | 0.651 | 0.58 |
| NCI-H1650 | 0.68 | 0.486 | 0.553 | 0.453 | 0.374 |
| NCI-H1651 | 1.02 | 0.992 | 1.05 | 0.992 | 0.877 |
| NCI-H1666 | 0.99 | 0.858 | 0.858 | 0.8 | 0.795 |
| NCI-H1703 | 0.853 | 0.75 | 0.287 | 0.33 | 0.344 |
| NCI-H1734 | 0.92 | 0.865 | 0.789 | 0.559 | 0.448 |

| Cell Line | relative viability (0.01 µM) | relative viability (0.03162 µM) | relative viability (0.1 µM) | relative viability (0.3162 µM) | relative viability (1 µM) |
| --- | --- | --- | --- | --- | --- |
| NCI-H1755 | 1.02 | 1 | 0.976 | 0.955 | 0.826 |
| NCI-H1792 | 0.952 | 0.715 | 0.706 | 0.25 | 0.238 |
| NCI-H1793 | 0.981 | 0.802 | 0.869 | 0.448 | 0.462 |
| NCI-H1915 | 0.772 | 0.763 | 0.606 | 0.494 | 0.42 |
| NCI-H1944 | 0.886 | 0.65 | 0.514 | 0.437 | 0.429 |
| NCI-H1975 | 0.914 | 1.11 | 0.979 | 0.705 | 0.59 |
| NCI-H1993 | 0.966 | 0.754 | 0.736 | 0.593 | 0.69 |
| NCI-H2009 | 1.03 | 0.876 | 0.766 | 0.697 | 0.575 |
| NCI-H2023 | 0.868 | 0.665 | 0.502 | 0.458 | 0.288 |
| NCI-H2085 | 1.04 | 0.82 | 0.708 | 0.661 | 0.723 |
| NCI-H2087 | 0.849 | 0.405 | 0.332 | 0.329 | 0.401 |
| NCI-H2126 | 1.03 | 0.992 | 0.954 | 0.933 | 0.566 |
| NCI-H2170 | 1.04 | 1.03 | 0.992 | 0.789 | 0.8 |
| NCI-H2228 | 1.06 | 0.844 | 0.687 | 0.606 | 0.553 |
| NCI-H2342 | 1.06 | 0.984 | 0.749 | 0.807 | 0.571 |
| NCI-H2347 | 0.831 | 0.89 | 0.735 | 0.676 | 0.691 |
| NCI-H2405 | 1.03 | 0.984 | 0.928 | 0.954 | 0.735 |
| NCI-H3122 | 1.02 | 0.977 | 0.949 | 0.704 | 0.44 |
| PC-3 [JPC-3] | 0.981 | 0.977 | 0.979 | 0.754 | 0.576 |
| PC-14 | 0.9 | 0.695 | 0.481 | 0.32 | 0.263 |
| RERF-LC-KJ | 1.1 | 0.948 | 0.899 | 0.697 | 0.665 |
| SK-LU-1 | 1.03 | 0.778 | 0.711 | 0.536 | 0.634 |
| SK-MES-1 | 1.07 | 0.933 | 0.909 | 0.727 | 0.704 |
| SW 900 | 0.697 | 0.282 | 0.486 | 0.338 | 0.272 |
| SW 1573 | 0.965 | 0.603 | 0.477 | 0.42 | 0.357 |
| UMC-11 | 0.884 | 0.641 | 0.566 | 0.517 | 0.432 |
